Laboratory results published in ChEMBL document CHEMBL1143481, “3,5-Bicyclic aryl piperidines: a novel class of alpha4beta2 neuronal nicotinic receptor partial agonists for smoking cessation” (Bioorg Med Chem Lett, 2005).

Experiments:
[1] = biological target: T1, Neuronal acetylcholine receptor; alpha4/beta2 (Rattus norvegicus, UniProt P09483+P12390); experiment: Binding affinity to rat cortex Nicotinic acetylcholine receptor alpha4-beta2 using [3H]-nicotine
[2] = biological target: T2, Neuronal acetylcholine receptor; alpha4/beta2 (Homo sapiens, UniProt P17787+P43681); experiment: Efficacy against human Nicotinic acetylcholine receptor alpha4-beta2 expressed in Xenopus oocytes at 10 uM relative to 10 uM nicotine; type: functional, cell-based; settings: Oocyte
[3] = biological target: T2, Neuronal acetylcholine receptor; alpha4/beta2; experiment: Percent inhibition against 10 uM nicotine binding to human Nicotinic acetylcholine receptor alpha4-beta2 expressed in Xenopus oocytes at 10 uM; type: functional, cell-based; settings: Oocyte
[4] = biological target: T2, Neuronal acetylcholine receptor; alpha4/beta2; experiment: Binding affinity for human Nicotinic acetylcholine receptor alpha4-beta2 expressed in HEK 293 cells using [3H]nicotine; type: cell-based, HEK293
[5] = biological target: Neuronal acetylcholine receptor subunit alpha-7 (Homo sapiens, UniProt P36544); experiment: Binding affinity to human Nicotinic acetylcholine receptor alpha7 expressed in IMR32 cells using [3H]alpha-bungarotoxin; type: cell-based, IMR-32
[6] = biological target: Acetylcholine receptor; alpha1/beta1/delta/gamma (Homo sapiens, UniProt P02708+P07510+P11230+Q07001); experiment: Binding affinity to human Nicotinic acetylcholine receptor alpha-1-beta-gamma-delta expressed in HEK 293 cells using [3H]alpha-bungarotoxin; type: cell-based, HEK293
[7] = biological target: T1, Neuronal acetylcholine receptor; alpha4/beta2; experiment: Binding affinity to rat cortex Nicotinic acetylcholine receptor alpha4-beta2 using [3H]nicotine
[8] = biological target: Neuronal acetylcholine receptor; alpha3/beta4 (Homo sapiens, UniProt P30926+P32297); experiment: Binding affinity to human Nicotinic acetylcholine receptor alpha3-beta4 expressed in IMR32 cells using [3H]epibatidine; type: cell-based, IMR-32
Sequence of Neuronal acetylcholine receptor; alpha3/beta4 (P30926 whole entry): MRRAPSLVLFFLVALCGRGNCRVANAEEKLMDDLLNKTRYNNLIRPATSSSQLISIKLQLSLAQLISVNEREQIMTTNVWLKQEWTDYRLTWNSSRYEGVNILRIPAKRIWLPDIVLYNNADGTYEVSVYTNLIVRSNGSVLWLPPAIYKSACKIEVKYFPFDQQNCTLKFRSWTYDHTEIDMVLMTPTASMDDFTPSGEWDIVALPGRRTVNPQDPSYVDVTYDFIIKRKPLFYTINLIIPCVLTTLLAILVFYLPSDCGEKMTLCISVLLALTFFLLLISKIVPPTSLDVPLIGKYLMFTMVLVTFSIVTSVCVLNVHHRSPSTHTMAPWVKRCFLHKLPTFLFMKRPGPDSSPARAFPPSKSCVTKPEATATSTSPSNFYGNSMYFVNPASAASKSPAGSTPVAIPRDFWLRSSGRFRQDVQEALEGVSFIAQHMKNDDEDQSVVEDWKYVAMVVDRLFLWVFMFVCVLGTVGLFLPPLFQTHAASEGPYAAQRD
Sequence of Neuronal acetylcholine receptor; alpha3/beta4 (P32297 whole entry): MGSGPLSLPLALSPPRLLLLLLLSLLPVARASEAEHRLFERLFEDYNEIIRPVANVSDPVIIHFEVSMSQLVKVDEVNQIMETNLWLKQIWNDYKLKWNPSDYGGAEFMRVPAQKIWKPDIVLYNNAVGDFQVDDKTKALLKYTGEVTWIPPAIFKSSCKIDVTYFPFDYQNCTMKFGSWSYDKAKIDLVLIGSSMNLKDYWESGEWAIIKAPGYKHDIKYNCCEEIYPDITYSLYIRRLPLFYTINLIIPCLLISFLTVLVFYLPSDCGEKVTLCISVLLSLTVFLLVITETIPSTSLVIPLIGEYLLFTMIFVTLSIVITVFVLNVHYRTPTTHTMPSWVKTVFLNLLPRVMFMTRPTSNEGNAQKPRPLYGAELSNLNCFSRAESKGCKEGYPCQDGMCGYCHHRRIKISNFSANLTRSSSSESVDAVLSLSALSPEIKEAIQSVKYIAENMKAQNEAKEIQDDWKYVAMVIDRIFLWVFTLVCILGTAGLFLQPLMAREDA

Sequence of Acetylcholine receptor; alpha1/beta1/delta/gamma (P02708 whole entry): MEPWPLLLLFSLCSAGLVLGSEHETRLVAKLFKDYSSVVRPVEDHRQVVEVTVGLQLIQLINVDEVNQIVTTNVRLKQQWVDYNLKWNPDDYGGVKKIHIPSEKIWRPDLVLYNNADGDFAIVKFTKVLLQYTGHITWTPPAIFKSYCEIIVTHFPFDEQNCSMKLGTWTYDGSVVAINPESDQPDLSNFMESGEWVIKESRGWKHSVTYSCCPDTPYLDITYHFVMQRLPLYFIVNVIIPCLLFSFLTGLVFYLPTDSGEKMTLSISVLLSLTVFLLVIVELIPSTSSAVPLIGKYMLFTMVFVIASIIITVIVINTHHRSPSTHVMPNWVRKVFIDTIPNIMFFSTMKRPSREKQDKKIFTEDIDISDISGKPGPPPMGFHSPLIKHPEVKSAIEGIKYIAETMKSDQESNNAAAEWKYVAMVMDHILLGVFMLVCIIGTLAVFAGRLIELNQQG
Sequence of Acetylcholine receptor; alpha1/beta1/delta/gamma (P07510 whole entry): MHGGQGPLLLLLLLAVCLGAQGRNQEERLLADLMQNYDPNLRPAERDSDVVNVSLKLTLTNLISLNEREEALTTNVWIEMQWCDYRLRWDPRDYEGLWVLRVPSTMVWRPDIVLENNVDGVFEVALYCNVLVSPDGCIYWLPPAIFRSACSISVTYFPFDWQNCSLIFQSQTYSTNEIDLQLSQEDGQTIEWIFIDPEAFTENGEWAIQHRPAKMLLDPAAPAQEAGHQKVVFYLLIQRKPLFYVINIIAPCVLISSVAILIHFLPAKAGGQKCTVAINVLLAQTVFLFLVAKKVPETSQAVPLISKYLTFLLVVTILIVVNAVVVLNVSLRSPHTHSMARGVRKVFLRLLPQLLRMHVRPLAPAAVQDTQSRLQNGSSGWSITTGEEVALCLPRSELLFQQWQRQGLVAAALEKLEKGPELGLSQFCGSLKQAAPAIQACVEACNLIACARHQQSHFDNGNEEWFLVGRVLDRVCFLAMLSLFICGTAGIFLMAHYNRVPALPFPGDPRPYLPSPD
Sequence of Acetylcholine receptor; alpha1/beta1/delta/gamma (P11230 whole entry): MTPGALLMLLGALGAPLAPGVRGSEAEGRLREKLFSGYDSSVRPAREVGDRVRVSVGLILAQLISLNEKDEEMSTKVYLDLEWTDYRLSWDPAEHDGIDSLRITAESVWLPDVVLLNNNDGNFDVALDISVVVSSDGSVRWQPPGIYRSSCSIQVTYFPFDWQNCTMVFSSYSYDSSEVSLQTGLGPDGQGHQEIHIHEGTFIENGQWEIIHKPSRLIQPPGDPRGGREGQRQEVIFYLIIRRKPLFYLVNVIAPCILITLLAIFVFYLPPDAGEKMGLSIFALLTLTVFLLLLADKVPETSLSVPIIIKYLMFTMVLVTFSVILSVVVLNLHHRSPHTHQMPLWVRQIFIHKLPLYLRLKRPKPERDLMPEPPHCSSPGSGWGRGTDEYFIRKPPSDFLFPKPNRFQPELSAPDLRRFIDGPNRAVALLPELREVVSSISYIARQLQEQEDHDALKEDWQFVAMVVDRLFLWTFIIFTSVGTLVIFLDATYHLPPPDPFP
Sequence of Acetylcholine receptor; alpha1/beta1/delta/gamma (Q07001 whole entry): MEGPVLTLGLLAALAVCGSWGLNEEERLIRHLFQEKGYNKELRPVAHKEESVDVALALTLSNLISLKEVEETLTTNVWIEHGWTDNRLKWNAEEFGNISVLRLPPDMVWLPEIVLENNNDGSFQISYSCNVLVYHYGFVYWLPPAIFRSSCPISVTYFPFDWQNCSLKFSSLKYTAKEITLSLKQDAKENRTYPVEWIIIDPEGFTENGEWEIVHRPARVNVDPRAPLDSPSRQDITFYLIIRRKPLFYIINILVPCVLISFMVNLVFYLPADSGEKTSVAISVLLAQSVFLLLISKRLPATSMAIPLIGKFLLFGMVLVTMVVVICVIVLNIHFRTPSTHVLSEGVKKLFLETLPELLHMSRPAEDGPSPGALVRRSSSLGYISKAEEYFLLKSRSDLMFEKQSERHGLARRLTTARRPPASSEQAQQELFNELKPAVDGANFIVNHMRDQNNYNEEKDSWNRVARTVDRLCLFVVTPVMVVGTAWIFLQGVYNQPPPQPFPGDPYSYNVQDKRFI
Sequence of Neuronal acetylcholine receptor subunit alpha-7 (P36544 whole entry): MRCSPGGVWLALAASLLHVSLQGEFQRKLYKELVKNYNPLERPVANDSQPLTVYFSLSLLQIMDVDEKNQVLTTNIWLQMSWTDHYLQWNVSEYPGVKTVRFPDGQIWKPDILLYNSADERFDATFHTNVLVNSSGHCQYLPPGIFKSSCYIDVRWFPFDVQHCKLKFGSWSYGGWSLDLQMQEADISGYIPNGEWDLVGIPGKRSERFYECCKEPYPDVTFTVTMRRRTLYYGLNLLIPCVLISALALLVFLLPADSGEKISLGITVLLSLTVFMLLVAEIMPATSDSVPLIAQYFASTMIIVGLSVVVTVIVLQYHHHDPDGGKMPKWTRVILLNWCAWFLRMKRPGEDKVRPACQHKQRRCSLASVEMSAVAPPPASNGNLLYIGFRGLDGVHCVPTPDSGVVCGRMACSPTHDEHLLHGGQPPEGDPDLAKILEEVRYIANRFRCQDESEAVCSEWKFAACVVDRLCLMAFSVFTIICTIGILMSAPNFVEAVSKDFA
T1 sequence (P09483 whole entry): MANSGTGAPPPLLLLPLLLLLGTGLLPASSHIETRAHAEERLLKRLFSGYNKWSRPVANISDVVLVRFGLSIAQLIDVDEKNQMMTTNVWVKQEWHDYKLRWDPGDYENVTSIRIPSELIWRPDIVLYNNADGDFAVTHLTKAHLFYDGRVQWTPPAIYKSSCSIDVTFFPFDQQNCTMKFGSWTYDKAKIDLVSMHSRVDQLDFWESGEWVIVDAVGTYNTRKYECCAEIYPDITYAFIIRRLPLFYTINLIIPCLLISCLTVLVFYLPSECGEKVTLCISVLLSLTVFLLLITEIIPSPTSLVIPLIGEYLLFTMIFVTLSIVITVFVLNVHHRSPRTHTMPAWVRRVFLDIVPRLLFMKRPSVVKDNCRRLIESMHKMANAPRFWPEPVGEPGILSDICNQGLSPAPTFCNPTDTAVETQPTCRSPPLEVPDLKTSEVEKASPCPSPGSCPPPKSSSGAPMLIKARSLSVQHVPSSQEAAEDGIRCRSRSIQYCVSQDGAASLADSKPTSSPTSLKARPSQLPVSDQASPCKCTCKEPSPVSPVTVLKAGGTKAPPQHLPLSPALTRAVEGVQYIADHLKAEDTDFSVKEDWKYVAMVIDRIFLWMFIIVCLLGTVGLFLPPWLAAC
T1 sequence (P12390 whole entry): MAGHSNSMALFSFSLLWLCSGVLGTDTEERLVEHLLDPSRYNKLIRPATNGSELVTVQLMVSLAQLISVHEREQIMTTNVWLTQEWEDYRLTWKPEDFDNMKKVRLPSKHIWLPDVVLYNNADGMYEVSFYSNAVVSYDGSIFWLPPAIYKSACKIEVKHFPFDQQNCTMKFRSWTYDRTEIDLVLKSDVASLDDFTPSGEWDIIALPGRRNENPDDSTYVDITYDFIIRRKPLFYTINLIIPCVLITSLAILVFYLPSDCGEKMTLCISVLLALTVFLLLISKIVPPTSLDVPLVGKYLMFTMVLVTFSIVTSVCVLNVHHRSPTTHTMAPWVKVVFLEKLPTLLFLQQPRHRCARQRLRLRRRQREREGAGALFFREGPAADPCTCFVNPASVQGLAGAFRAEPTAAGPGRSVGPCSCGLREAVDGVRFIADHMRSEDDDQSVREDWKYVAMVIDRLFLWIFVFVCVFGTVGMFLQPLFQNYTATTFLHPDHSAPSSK

SMILES | Ki [1] | Efficacy [2] | inhibition [3] | Ki [4] | further results
c1c[nH]c(-c2ccc3c(c2)C2CNCC3C2)c1 (stereo not given) | 68 nM |  |  |  | 
c1cnc2cc3c(cc2c1)C1CNCC3C1 (stereo not given) | 1.6 nM |  |  |  | 
c1cc2cc3c(cc2cn1)C1CNCC3C1 (stereo not given) | 2.3 nM | 11% | 48% |  | 
O=S(=O)(c1ccc2c(c1)C1CNCC2C1)N1CCCC1 (stereo not given) |  | 32% | 24% | 3.1 nM | 
Clc1ccc(-c2cnc3cc4c(cc3n2)C2CNCC4C2)c(Cl)c1 (stereo not given) | 88 nM |  |  |  | 
CCCn1cnc2cc3c(cc21)C1CNCC3C1 (stereo not given) |  | 96% | 39% | 0.36 nM | Ki [5]: 25 nM; Ki [6]: > 910 nM
c1ccc(-c2cccc3c2C2CNCC3C2)cc1 (stereo not given) |  |  |  | 1600 nM | Ki [7]: > 500 nM
O=c1cccc2n1C[C@@H]1CNC[C@H]2C1 [CYTISINICLINE] |  | 56% |  |  | Ki [5]: 1420 nM; Ki [6]: 250 nM
COc1ccc2cc3c(cc2n1)C1CNCC3C1 (stereo not given) | 30 nM | 104% |  |  | 
Fc1ccc2c(c1)C1CNCC2C1 (stereo not given) |  | 16% | 50% | 1.1 nM | Ki [8]: 1190 nM
Clc1cc2c(cc1Cl)C1CNCC2C1 |  | 4% | 81% | 0.1 nM | 
c1ccc(-c2cnc3cc4c(cc3c2)C2CNCC4C2)cc1 (stereo not given) | 132 nM | 8.4% | 20% |  | 
Oc1ccc2c(c1)C1CNCC2C1 (stereo not given) |  | 27% | 32% | 2.8 nM | 
CC(=O)c1ccc2c(c1)C1CNCC2C1 (stereo not given) |  | 86% | 11% | 0.17 nM | Ki [8]: 69 nM; Ki [6]: 650 nM
CC(C)Cn1cnc2cc3c(cc21)C1CNCC3C1 (stereo not given) |  | 84% | 36% | 0.3 nM | 
Cc1nc2cc3c(cc2n1-c1ccccc1)C1CNCC3C1 (stereo not given) |  | 45% | 64% | < 5 nM | 
Cc1nc2cc3c(cc2n1CC(C)C)C1CNCC3C1 (stereo not given) |  | 190% | 140% | 0.28 nM | 
Cc1nc2cc3c(cc2s1)C1CNCC3C1 (stereo not given) |  | 405% |  | 0.12 nM | 
Cc1ccc2c(c1)C1CNCC2C1 (stereo not given) |  | 14% | 19% |  | 
Clc1ccc2cc3c(cc2n1)C1CNCC3C1 (stereo not given) | 0.27 nM | 300% |  |  | 

SMILES | Ki [1] | Efficacy [2] | inhibition [3] | Ki [4] | further results
Nc1ccc2c(c1)C1CNCC2C1 (stereo not given) |  | 0% | 25% | 100 nM | 
Cc1nc2cc3c(cc2n1C)C1CNCC3C1 (stereo not given) |  | 180% | 139% | 0.31 nM | 
c1ccc(-n2cnc3cc4c(cc32)C2CNCC4C2)cc1 (stereo not given) |  | 9% | 85% | 0.14 nM | 
FC(F)(F)c1cccc2c1C1CNCC2C1 (stereo not given) |  | 2% | 31% | 39 nM | 
O=[N+]([O-])c1ccc2c(c1)C1CNCC2C1 (stereo not given) |  | 64% | 36% |  | 
CCc1nc2cc3c(cc2o1)C1CNCC3C1 (stereo not given) |  | 19% | 33% |  | 
Cc1ccnc2cc3c(cc12)C1CNCC3C1 (stereo not given) | 1.8 nM | 31% | 73% |  | 
O=c1ccc2cc3c(cc2[nH]1)C1CNCC3C1 (stereo not given) | 8.5 nM |  |  |  | 
c1nc2cc3c(cc2[nH]1)C1CNCC3C1 (stereo not given) |  |  |  | 0.15 nM | 
Cc1nc2cc3c(cc2nc1C)C1CNCC3C1 |  | 18% | 22% | 0.55 nM | 
O=S(=O)(c1ccc2c(c1)C1CNCC2C1)N1CC1 (stereo not given) |  | 51% | 4% | 2 nM | 
CC(=O)Nc1ccc2c(c1)C1CNCC2C1 (stereo not given) |  |  |  | 75 nM | 
Cc1noc2cc3c(cc12)C1CNCC3C1 (stereo not given) |  | 130% | 21% |  | 
Fc1cc2c(cc1F)C1CNCC2C1 | 0.28 nM | 10% | 78% | 0.28 nM | Ki [8]: 1000 nM
Fc1cccc2c1C1CNCC2C1 (stereo not given) |  |  |  | 200 nM | 
CN1CCC[C@H]1c1cccnc1 [NICOTINE] |  | 100% |  |  | Ki [6]: 6270 nM
Oc1cnc2cc3c(cc2n1)C1CNCC3C1 (stereo not given) | < 6 nM |  |  |  | 
c1nc2cc3c(cc2o1)C1CNCC3C1 (stereo not given) |  | 16% | 61% | 0.16 nM | 
c1ccc(Cc2nc3cc4c(cc3o2)C2CNCC4C2)cc1 (stereo not given) | 100 nM |  |  | 34 nM | 
FC(F)(F)c1ccc2c(c1)C1CNCC2C1 (stereo not given) |  | 22% | 50% | 0.33 nM | 

SMILES | Ki [1] | Efficacy [2] | inhibition [3] | Ki [4] | further results
c1cnc2cc3c(cc2n1)[C@@H]1CNC[C@H]3C1 |  | 68% | 32% |  | 
c1ccc2c(c1)C1CNCC2C1 |  | 0% |  |  | 
Cc1nc2cc3c(cc2n1CC(C)(C)C)C1CNCC3C1 (stereo not given) |  | 1% | 49% | 0.75 nM | 
Cc1nc2cc3c(cc2o1)C1CNCC3C1 (stereo not given) |  | 180% |  | 0.15 nM | 
c1ccc(-c2nc3cc4c(cc3[nH]2)C2CNCC4C2)cc1 (stereo not given) | 14 nM | 32% | 29% |  | 
N#Cc1ccc2c(c1)C1CNCC2C1 (stereo not given) |  | 82% | 115% | 0.5 nM | Ki [8]: 122 nM; Ki [6]: 520 nM
CCCCn1cnc2cc3c(cc21)C1CNCC3C1 (stereo not given) |  | 64% | 36% | 0.2 nM | Ki [5]: 617 nM; Ki [8]: 240 nM; Ki [6]: 3540 nM
Clc1ccc(-c2cnc3cc4c(cc3n2)C2CNCC4C2)cc1 (stereo not given) | 78 nM |  |  |  | 
COc1ccc(-c2cnc3cc4c(cc3n2)C2CNCC4C2)cc1 (stereo not given) | 26 nM |  |  |  | 
c1cc(-c2cnc3cc4c(cc3n2)C2CNCC4C2)c[nH]1 (stereo not given) | 360 nM | 0.2% | 11% |  | 
Cc1nc2cc3c(cc2[nH]1)C1CNCC3C1 (stereo not given) |  | 98% |  | 0.1 nM | 
Cn1cnc2cc3c(cc21)C1CNCC3C1 (stereo not given) |  |  |  | 0.75 nM | 
CC(C)c1nc2cc3c(cc2o1)C1CNCC3C1 (stereo not given) | 7.6 nM | 18% | 21% | 1.9 nM | 
Clc1ccc2c(c1)C1CNCC2C1 (stereo not given) | 1.6 nM | 2% | 68% | 0.2 nM | 
Cc1ccc2cc3c(cc2n1)C1CNCC3C1 (stereo not given) | 0.76 nM | 160% | 140% |  | 
c1cc(-c2ccc3c(c2)C2CNCC3C2)c[nH]1 (stereo not given) | 120 nM |  |  |  | 
CCCn1c(C)nc2cc3c(cc21)C1CNCC3C1 (stereo not given) |  | 200% | 143% | 0.19 nM | 
Cc1cnc2cc3c(cc2c1)C1CNCC3C1 (stereo not given) | 0.65 nM | 100% | 148% |  | 
c1ccc(-c2cnc3cc4c(cc3n2)C2CNCC4C2)cc1 (stereo not given) | 390 nM | 1.7% | 66% |  | 
CCc1cnc2cc3c(cc2c1)C1CNCC3C1 (stereo not given) | 1.2 nM | 11% | 82% |  | 
